Where two headings read alike, the source gives them in different places.
Tests used:
absence seizures = settings: childhood absence epilepsy, cited from earlier work
[1] = molecular target: T1, Human Cav3.1 calcium channel (Homo sapiens, UniProt O43497); test: Human Cav3.1 calcium channel patch clamp assay (SyncroPatch 384PE; single point and IC50, voltage dependent block); type: cell-based; settings: for % Inhibition (Single Point Data): patch clamp
T1 construct: expressed in transfected cells; host or cells: HEK-293 natClytin/TASK1+Cav3.1 cell line
T1 sequence (O43497 whole entry): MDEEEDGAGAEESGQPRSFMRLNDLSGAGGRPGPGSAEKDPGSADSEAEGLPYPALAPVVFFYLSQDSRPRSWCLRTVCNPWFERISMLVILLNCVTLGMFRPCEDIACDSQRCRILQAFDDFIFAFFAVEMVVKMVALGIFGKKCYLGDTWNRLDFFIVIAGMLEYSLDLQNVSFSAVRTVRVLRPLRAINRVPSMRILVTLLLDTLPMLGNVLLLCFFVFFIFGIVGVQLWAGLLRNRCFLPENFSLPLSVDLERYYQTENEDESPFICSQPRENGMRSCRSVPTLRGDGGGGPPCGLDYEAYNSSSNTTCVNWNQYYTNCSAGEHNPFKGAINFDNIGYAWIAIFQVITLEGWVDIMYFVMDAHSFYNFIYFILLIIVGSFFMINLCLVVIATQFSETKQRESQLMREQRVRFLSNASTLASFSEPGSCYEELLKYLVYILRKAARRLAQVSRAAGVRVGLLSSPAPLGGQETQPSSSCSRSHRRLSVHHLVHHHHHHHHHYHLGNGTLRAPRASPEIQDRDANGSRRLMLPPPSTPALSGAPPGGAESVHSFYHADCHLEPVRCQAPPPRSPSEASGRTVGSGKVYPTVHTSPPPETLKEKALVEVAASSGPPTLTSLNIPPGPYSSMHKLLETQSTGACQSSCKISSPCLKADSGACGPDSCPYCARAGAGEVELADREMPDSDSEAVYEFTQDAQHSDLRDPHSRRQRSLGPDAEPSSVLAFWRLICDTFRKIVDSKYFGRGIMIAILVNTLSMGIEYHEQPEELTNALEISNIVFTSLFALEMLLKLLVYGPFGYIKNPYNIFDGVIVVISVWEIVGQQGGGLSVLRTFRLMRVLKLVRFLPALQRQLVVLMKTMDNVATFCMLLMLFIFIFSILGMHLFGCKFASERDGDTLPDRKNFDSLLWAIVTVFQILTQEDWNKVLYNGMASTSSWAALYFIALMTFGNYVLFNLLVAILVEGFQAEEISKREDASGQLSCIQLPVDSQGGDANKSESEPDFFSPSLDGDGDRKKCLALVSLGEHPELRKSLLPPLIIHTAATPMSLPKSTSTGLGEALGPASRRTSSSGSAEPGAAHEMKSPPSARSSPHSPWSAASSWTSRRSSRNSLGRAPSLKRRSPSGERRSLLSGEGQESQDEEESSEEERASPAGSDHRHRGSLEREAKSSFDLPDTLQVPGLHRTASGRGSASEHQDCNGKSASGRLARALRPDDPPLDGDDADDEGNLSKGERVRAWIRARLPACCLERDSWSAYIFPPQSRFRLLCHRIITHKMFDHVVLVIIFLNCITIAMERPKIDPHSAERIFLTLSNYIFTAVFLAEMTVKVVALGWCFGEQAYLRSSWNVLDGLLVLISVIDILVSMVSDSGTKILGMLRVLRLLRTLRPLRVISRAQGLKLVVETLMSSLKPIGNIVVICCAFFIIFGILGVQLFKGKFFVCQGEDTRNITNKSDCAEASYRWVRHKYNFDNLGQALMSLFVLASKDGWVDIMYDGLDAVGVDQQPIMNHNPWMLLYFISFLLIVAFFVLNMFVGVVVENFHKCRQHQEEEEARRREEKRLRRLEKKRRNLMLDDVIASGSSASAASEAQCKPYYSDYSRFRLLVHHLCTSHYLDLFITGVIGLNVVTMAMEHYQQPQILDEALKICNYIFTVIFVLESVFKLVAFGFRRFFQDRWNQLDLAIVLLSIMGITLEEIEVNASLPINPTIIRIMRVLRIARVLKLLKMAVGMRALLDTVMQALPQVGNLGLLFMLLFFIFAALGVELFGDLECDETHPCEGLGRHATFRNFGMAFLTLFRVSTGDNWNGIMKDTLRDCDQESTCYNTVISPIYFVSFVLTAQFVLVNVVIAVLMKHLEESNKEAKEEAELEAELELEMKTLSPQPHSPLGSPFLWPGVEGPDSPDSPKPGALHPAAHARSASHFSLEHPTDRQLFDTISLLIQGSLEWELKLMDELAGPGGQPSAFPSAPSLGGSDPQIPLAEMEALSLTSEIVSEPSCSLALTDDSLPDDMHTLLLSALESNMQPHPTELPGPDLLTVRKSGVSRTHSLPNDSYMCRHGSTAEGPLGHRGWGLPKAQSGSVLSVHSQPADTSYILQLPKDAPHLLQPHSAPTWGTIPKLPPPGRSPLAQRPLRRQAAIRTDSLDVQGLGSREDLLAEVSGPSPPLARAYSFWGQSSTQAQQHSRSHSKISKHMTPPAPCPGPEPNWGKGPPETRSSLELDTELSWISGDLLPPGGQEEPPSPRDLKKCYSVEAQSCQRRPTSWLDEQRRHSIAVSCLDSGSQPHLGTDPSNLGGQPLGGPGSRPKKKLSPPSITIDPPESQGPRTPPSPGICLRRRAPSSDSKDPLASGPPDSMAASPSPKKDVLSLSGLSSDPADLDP
Procedure, shortened: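 Automated whole-cell patch clamp at room temperature, cells held at −120 mV; 100 ms step to −20 mV (resting block), then 1600 ms at −65 mV and a second −20 mV step (voltage-dependent block), every 15 s. Peak currents averaged over last 3 sweeps; % inhibition relative to nickel-sensitive current.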

[2] = at 16 weeks, assessed by video-EEG recordings
[3] = Testing Conc 1.25, HEK-293 natClytin/TASK1+Cav3.1 cell line
[4] = voltage dependent block (VDB), HEK-293 natClytin/TASK1+Cav3.1 cell line, read-out: Cav3.1 IC50
[5] = Testing Conc 1, HEK-293 natClytin/TASK1+Cav3.1 cell line

Row | IC50 [1, 4] [nM] | Structure (SMILES) | % Inhibition (Single Point Data) [1, 3] [%] | further results
1 |  | CCC1(C)CC(=O)NC1=O (centres unmarked) [ethosuximide] |  | patients in whom the seizures were completely controlled (absence seizures; at 12 months): 45%; patients in whom the seizures were completely controlled (absence seizures; [2]): 53%
2 |  | Nc1nnc(-c2cccc(Cl)c2Cl)c(N)n1 [Lamotrigine] |  | patients in whom the seizures were completely controlled (absence seizures; at 12 months): 21%; patients in whom the seizures were completely controlled (absence seizures; [2]): 29%
3 |  | CC(C)(C)NC(=O)CN1C[C@@H]2C[C@H]1CN2CC(=O)Nc1ccc(F)c(Cl)c1 [Compound 23] | 91.472 | 
4 |  | CC1(C)CCN1C(=O)CN1C[C@@H]2C[C@H]1CN2CC(=O)NC12CC3CC(CC(C3)C1)C2 [Compound 328] | 48.833 | 
5 |  | CC(C)(C)NC(=O)CN1C2CC1CN(Cc1nc3c(OC(F)F)ccc(F)c3[nH]1)C2 [Compound 173] | 94.854 | IC50 [1]: < 78.2 nM
6 |  | CC(C)(C)NC(=O)CN1C[C@@H]2C[C@H]1CN2CC(=O)Nc1ccc(F)c(OC(F)F)c1 [Compound 247] | 97.344 | 
7 | 627 | COCC1CN(CC(=O)NC(C)(C)C)CCN1CC(=O)Nc1cc(F)cc(Cl)c1 (centres unmarked) [Compound 42] |  | % Inhibition (Single Point Data) [1, 5]: 62.5%
8 |  | CC(C)(C)NC(=O)CN1C2CC1CN(CC(=O)Nc1ccc(F)c(Cl)c1)C2 [Compound 216] | 97.034 | 
9 |  | CC(C)(C)NC(=O)CN1C[C@H]2C[C@@H]1CN2CC(=O)Nc1cc(F)cc(OC(F)F)c1 [Compound 21] | 73.828 | 
10 | 671 | Fc1ccc(Cl)c2nc(CN3CCN(CC(F)(F)C4CCCC4)CC3)[nH]c12 [Compound 163] | 54.884 | 
11 |  | COc1cccc(NC(=O)CN2CC3CC2CN3CCNC(=O)C2(C(F)(F)F)CC2)c1 (centres unmarked) [Compound 237] | 35.987 | 
12 |  | Fc1cc(Cl)c2nc(CN3CC4CCC(C3)N4CCC3CCCC3)[nH]c2c1 [Compound 84] | 101 | 
13 |  | CC(C)(C)NC(=O)CN1C2CC1CN(C(=O)NCC13CC4CC(CC(C4)C1)C3)C2 [Compound 295] | 0.753 | 
14 |  | Cc1cccc2[nH]c(CN3CC4CC(C3)N4CCC3CCOCC3)nc12 [Compound 204] | 3.6634 | 
15 |  | C[C@@H](c1nc2c(Cl)cc(F)cc2[nH]1)N1CC2CCC(C1)N2CC(=O)NC(C)(C)C [Compound 119] | 95.894 | 
16 | 457 | O=C(CN1C[C@@H]2C[C@H]1CN2CC(=O)NC1(C(F)(F)F)CC1)Nc1ccc(F)c(Cl)c1 [Compound 25] | 66.125 | 
17 | 241 | COc1cc(NC(=O)CN2C[C@@H]3C[C@H]2CN3CC(=O)NC(C)(C)C)ccc1F [Compound 310] | 84.193 | 
18 | 356 | CC(C)(C)NC(=O)CN1C[C@H]2CC[C@@H]1CN2CC(=O)Nc1cc(F)cc(Cl)c1 [Compound 268] | 85.508 | 
19 | 162 | CC(C)(C)NC(=O)CN1C[C@H]2COC[C@@H](C1)[C@@H]2CC(=O)Nc1cc(F)cc(Cl)c1 [Compound 372] |  | 
20 | 89.3 | CC(C)(C)NC(=O)CN1CC2CC1CN2CC(=O)Nc1cc(F)cc(OC(F)F)c1 (centres unmarked) [Compound 231] | 95.51 | 
21 |  | O=C(CN1C2CC1CN(Cc1nc3c(Cl)ccc(F)c3[nH]1)C2)NC1(C(F)(F)F)COC1 [Compound 180] | 82.621 | 

Row | IC50 [1, 4] [nM] | Structure (SMILES) | % Inhibition (Single Point Data) [1, 3] [%] | further results
22 | 536 | COc1cccc(NC(=O)CN2CC3CC2CN3CCNC(=O)C2(C(F)(F)F)CCC2)c1 (centres unmarked) [Compound 236] | 65.449 | 
23 | 652 | Fc1cc(Cl)c2nc(CN3CCN(CC(F)(F)C4CCCC4)CC3)[nH]c2c1 [Compound 160] | 73.495 | 
24 | 1740 | CC(C)(C)NC(=O)CN1C[C@H]2COC[C@@H](C1)[C@H]2CNC(=O)c1cc(F)cc(Cl)c1 [Compound 370] |  | 
25 |  | CC(C)(C)NC(=O)CN1CCN(Cc2cnc(-c3ccccc3)[nH]2)CC1 [Compound 43] |  | % Inhibition (Single Point Data) [1, 5]: 29.301%
26 |  | CC(C)(C)NC(=O)CN1C[C@@H]2C[C@H]1CN2C(=O)NCC12CC3CC(CC(C3)C1)C2 [Compound 290] | 8.7515 | 
27 | 2380 | CC(C)(C)NC(=O)CN1CC2CC1CN2CC(=O)Nc1cccc(Cl)c1 (centres unmarked) [Compound 131] | 83.36 | 
28 |  | CN(C(=O)CN1C2CC1CN(Cc1nc3c(Cl)cc(F)cc3[nH]1)C2)C(C)(C)C [Compound 101] | 96.57 | 
29 |  | CC(C)(C)C(=O)NCCN1C2CC1CN(Cc1nc3c(Cl)cc(F)cc3[nH]1)C2 [Compound 134] | 94.728 | 
30 |  | Cc1cc(F)cc(NC(=O)CN2CC3CC(C2)N3CC(=O)NC(C)(C)C)c1 [Compound 215] | 100 | 
31 | 176 | O=C(CN1C[C@@H]2C[C@H]1CN2CC(=O)NC1(C(F)(F)F)CC1)Nc1cc(F)c(F)c(OC(F)F)c1 [Compound 359] |  | 
32 | 370 | Fc1ccc(Cl)c2nc(CN3CCN(CC4(F)CCC(F)(F)CC4)CC3)[nH]c12 [Compound 155] | 80.753 | 
33 |  | CC(C)(C)NC(=O)CN1C2CC1CN(CC(=O)Nc1cc(F)ccc1Cl)C2 [Compound 213] | 27.718 | 
34 | 525 | Fc1ccc(Cl)c2nc(CN3CCN(CC(F)(F)C4CCCCC4)CC3)[nH]c12 [Compound 154] | 75.83 | 
35 | 409 | CC(C)(C)NC(=O)CN1CCN(Cc2cnc(-c3cc(F)cc(Cl)c3)[nH]2)CC1 [Compound 31, N-tert-butyl-2-[4-[[2-(3-chloro-5-fluoro-phenyl)-1H-imidazol-5-yl]methyl]piperazin-1-yl]acetamide] |  | % Inhibition (Single Point Data) [1, 5]: 75.738%
36 |  | OC(CN1C2CC1CN(Cc1nc3c(Cl)cc(F)cc3[nH]1)C2)C1CCCCC1 (centres unmarked) [Compound 147] | 99.075 | 
37 | 243 | CC(C)(C)NC(=O)CN1CCC(CNc2nccc3c(F)cc(Cl)cc23)CC1 [Compound 123] | 96.398 | 
38 | 3320 | CC(C)Cc1cc(CNC(=O)CN2C[C@@H]3C[C@H]2CN3CC(=O)NC(C)(C)C)nn1-c1ccccc1 [Compound 302] | 21.003 | 
39 | 888 | CC(C)(C)NC(=O)CN1C[C@H]2CC[C@@H]1CN2CC(=O)Nc1ccc(F)c(Cl)c1 [Compound 269] | 62.186 | 
40 | 167 | CC(C)(C)NC(=O)CN1CC2CCC1CN2Cc1nc2c(Cl)cc(F)cc2[nH]1 (centres unmarked) [Compound 63] | 93.839 | 
41 |  | Cn1nc(C2CC2)cc1NC(=O)CN1CC2CCC(C1)N2CC(=O)NC(C)(C)C [Compound 4] | 15.896 | 

Row | Structure (SMILES) | IC50 [1, 4] [nM] | % Inhibition (Single Point Data) [1, 3] [%] | further results
42 | COc1cccc2[nH]c(CN3CC4CCC(C3)N4CC(=O)NC(C)(C)C)nc12 [Compound 192] | 334 | 76.034 | 
43 | CC(C)(C)NC(=O)CN1C2CC1CN(CC(=O)Nc1ccc(F)c(C(F)F)c1)C2 [Compound 250] | 377 | 86.981 | 
44 | CC(C)(C)NC(=O)CN1C2CC1CN(CC(=O)NC13CCC(CC1)CC3)C2 [Compound 307] | 1010 | 41.625 | 
45 | CC(C)(NC(=O)CN1C2CC1CN(Cc1nc3c(F)ccc(F)c3[nH]1)C2)C(F)(F)F [Compound 166] | 253 | 87.157 | 
46 | COc1cc(NC(=O)CN2CC3CC(C2)N3CC(=O)NC(C)(C)C)ccc1F [Compound 248] | 530 | 64.348 | 
47 | COc1cc(F)cc(NC(=O)CN2CC3CC(C2)N3CC(=O)NC2(C(F)(F)F)CC2)c1 [Compound 333] | 178 | 82.813 | 
48 | O=C(CN1CC2CC(C1)N2CC(=O)NC1(C(F)(F)F)CC1)Nc1ccc(F)c(C(F)F)c1 [Compound 252] | 579 | 72.234 | 
49 | CC(C)(C)NC(=O)CN1C2CCC1CN(CC(=O)NC13CC4CC(CC(C4)C1)C3)C2 [Compound 7] | 904 | 64.635 | 
50 | CC(C)(C)NC(=O)CN1C2CC1CN(CC(=O)Nc1cc(F)cc(C#N)c1)C2 [Compound 220] | 671 | 80.621 | 
51 | CC1(CN2C3CC2CN(Cc2nc4c(Cl)cc(F)cc4[nH]2)C3)CCOCC1 [Compound 106] | 1110 | 52.218 | 
52 | CC(C)(C)NC(=O)CN1C2CC1CN(CC(=O)Nc1ccc(F)c(OC(F)F)c1)C2 [Compound 244] | 179 | 90.346 | 
53 | CC1(C)CCN1C(=O)CN1C2CCC1CN(Cc1nc3c(Cl)cc(F)cc3[nH]1)C2 [Compound 86] | 150 | 103.03 | 
54 | CC(C)(C)NC(=O)CN1C2CC1CN(CC(=O)Nc1cc(F)c(F)c(OC(F)F)c1)C2 [Compound 360] | 76 |  | 
55 | COc1ccc(F)c(NC(=O)CN2CC3CC(C2)N3CC(=O)NC(C)(C)C)c1 [Compound 222] | 1100 | 52.3 | 
56 | O=C(CN1CC2CC(C1)N2CCS(=O)(=O)c1ccccc1)Nc1cc(F)cc(Cl)c1 [Compound 171] | 1420 | 34.047 | 
57 | O=C1CCCCN1CCN1C2CCC1CN(Cc1nc3c(Cl)cc(F)cc3[nH]1)C2 [Compound 97] | 367 | 79.865 | 
58 | N#CC1(CN2C3CC2CN(CC(=O)Nc2cc(F)cc(Cl)c2)C3)CCCCC1 [Compound 51] | 1440 | 29.781 | 
59 | CC(C)(NC(=O)CN1CC2CC(C1)N2Cc1nc2c(Cl)ccc(F)c2[nH]1)C(F)(F)F [Compound 127] | 992 | 52.415 | 

From US20250213558A1, “T-TYPE CALCIUM CHANNEL MODULATORS COMPRISING A PIPERAZINE OR 1,4-DIAZEPANE CORE AND METHODS OF USE THEREOF” (Praxis Precision Medicines, Inc., priority 2022, published 2025)
